In patent US8415486B2, “IAP inhibitors” (TetraLogic Pharmaceuticals Corp., priority 2009, dated 2013):

How the values were obtained:
XIAP BIR-3 = target: T1, XIAP BIR-3 (Homo sapiens, UniProt P98170); assay: Fluorescence polarization binding to XIAP BIR-3 with labeled peptide AbuRPF-K(5-Fam)-NH2; conditions: 40 nM BIR3, 5 nM labeled peptide, reported as ranges
T1 construct: 40 nM of the respective IAP BIR3
Procedure: (§1) The binding affinities of the compounds are reported as a KD value (μM). Briefly, various concentrations of test peptides were mixed with 5 nM of the fluorescently labeled peptide (i.e., a mutated N-terminal Smac peptide—AbuRPF-K(5-Fam)-NH2) and 40 nM of the respective IAP BIR3 for 15 min at RT in […] of 0.1M Potassium Phosphate buffer, pH 7.5 containing 100 mg/ml bovine g-globulin. Following incubation, the polarization values (mP) were measured on a Victor2V (available from PerkinElmer Life Sciences) using a 485 nm excitation filter and a 520 nm emission filter. The reported binding affinities (KD values) are supplied as ranges (A=<0.1 μM, B=0.1 μM to 1 μM, C=>1 μM to 10 μM, D=>10 μM).

cIAP-1 BIR-3 = target: T2, cIAP-1 BIR-3 (Homo sapiens, UniProt Q13490); assay: Fluorescence polarization binding to cIAP-1 BIR-3 with labeled peptide AbuRPF-K(5-Fam)-NH2; conditions: 40 nM BIR3, 5 nM labeled peptide, reported as ranges, read-out: KD (c-IAP-1 BIR3)
T2 construct: 40 nM of the respective IAP BIR3
T2 sequence (Q13490 253-363 limits assumed): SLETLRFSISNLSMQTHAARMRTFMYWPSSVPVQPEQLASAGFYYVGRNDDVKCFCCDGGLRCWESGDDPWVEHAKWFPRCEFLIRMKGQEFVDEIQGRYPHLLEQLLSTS
Procedure: as §1

[1] = system: ovarian cancer cell line, SK-OV-3; assay: SK-OV-3 cell growth inhibition (MTT, 72 hrs); format: cell-based; conditions: Homo sapiens, concentration giving 50% cell survival, reported as ranges
Procedure: Compounds of the invention also were tested for their ability to inhibit the growth of an ovarian cancer cell line, SK-OV-3. A known assay previously used for measuring cell growth (as described in Hansen, M. B., Nielsen, S. E., and Berg, K. (1989) J. Immunol. Methods 119, 203-210 and incorporated herein by reference in its entirety) was used. Briefly, SK-OV-3 cells are seeded in 96-well plates in McCoy's medium containing 10% fetal bovine serum albumin (5,000 per well) and incubated overnight at 37° C. The next day, test compounds are added at various concentrations (0.003-10 μM) and the plates are incubated at 37° C. for an additional 72 hrs. This incubation time was considered to be optimal for measuring inhibitory effects of the different compounds tested. 50 microliters of 5 mg/mL MTT reagent is added to each well and the plates are incubated at 37° C. for another three (3) hours. At the end of the three (3) hour incubation period, 50 microliters of DMSO is added to each well to dissolve cells and the optical density (OD) of the wells is measured with a microplate reader (Victor^2 1420, Wallac, Finland) at 535 nm. Cell survival (CS) was calculated using the following equation: CS=(OD treated well/mean OD control wells)×100%.
The CC50 (reported in the following tables), is defined as the drug concentration that results in 50% cell survival (CS), and is derived by calculating the point where the dose-response curve crosses the 50% CS point using GraphPad Prism. The reported CC50 values are supplied as ranges (A=<0.1 μM, B=0.1 μM to 1 μM, C=>1 μM to 10 μM, D=>10 μM).

T1 sequence (P98170 241-356 limits assumed): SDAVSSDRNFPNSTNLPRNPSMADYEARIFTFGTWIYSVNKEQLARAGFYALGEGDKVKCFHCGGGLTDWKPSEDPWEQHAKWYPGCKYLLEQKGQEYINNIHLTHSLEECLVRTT

| SMILES | Kd (XIAP BIR-3) [nM] | Kd (cIAP-1 BIR-3) [nM] | CC50 [1] [nM] |
| --- | --- | --- | --- |
| CN[C@@H](C)C(=O)N[C@H](C(=O)N1CC[C@H]2NC[C@H](Oc3ccc4ccccc4c3)[C@H]21)C1CCCCC1 [Example 7, N-{1-Cyclohexyl-2-[6-(naphthalen-2-yloxy)-hexahydro-pyrrolo[3,2-b]pyrrol-1-yl]-2-oxo-ethyl}-2-methylamino-propionamide] | < 100 | < 100 | < 100 |
| CN[C@@H](C)C(=O)N[C@H](C(=O)N1CC[C@@H]2[C@H]1[C@@H](Oc1ccc(F)c(F)c1)CN2C(C)=O)C(C)(C)C [Example 21, N-{1-[4-Acetyl-6-(3,4-difluoro-phenoxy)-hexahydro-pyrrolo[3,2-b]pyrrole-1-carbonyl]-2,2-dimethyl-propyl}-2-methylamino-propionamide] | 100 to 1000 | < 100 | < 100 |
| CN[C@@H](CF)C(=O)N[C@H](C(=O)N1CC[C@@H]2[C@H]1[C@@H](OCc1ccccc1)CN2C(=O)OC(C)(C)C)C1CCCCC1 [Example 32, 3-Benzyloxy-4-[2-cyclohexyl-2-(3-fluoro-2-methylamino-propionylamino)-acetyl]-hexahydro-pyrrolo[3,2-b]pyrrole-1-carboxylic acid tert-butyl ester] | < 100 | < 100 | 100 to 1000 |
| CCCCNC(=O)O[C@H]1CN(C(=O)NC(C)C)[C@@H]2CCN(C(=O)[C@@H](NC(=O)[C@H](C)NC)C(C)(C)C)[C@H]12 [Example 53, Butyl-carbamic acid 4-[3,3-dimethyl-2-(2-methylamino-propionylamino)-butyryl]-1-isopropylcarbamoyl-octahydro-pyrrolo[3,2-b]pyrrol-3-yl ester] | 100 to 1000 | < 100 | 100 to 1000 |
| CN[C@@H](C)C(=O)N[C@H](C(=O)N1CC[C@@H]2[C@H]1[C@@H](OCc1ccc(F)cc1)CN2C(=O)CC(C)C)C(C)(C)C [Example 39, N-{1-[6-(4-Fluoro-benzyloxy)-4-(3-methyl-butyryl)-hexahydro-pyrrolo[3,2-b]pyrrole-1-carbonyl]-2,2-dimethyl-propyl}-2-methylamino-propionamide] | < 100 | < 100 | < 100 |
| CN[C@@H](CF)C(=O)N[C@H](C(=O)N1CC[C@H]2NC[C@H](OCc3ccccc3)[C@H]21)C1CCCCC1 [Example 33, N-[2-(6-Benzyloxy-hexahydro-pyrrolo[3,2-b]pyrrol-1-yl)-1-cyclohexyl-2-oxo-ethyl]-3-fluoro-2-methylamino-propionamide] | 100 to 1000 | < 100 | > 10000 |
| CNC(=O)N1C[C@H](Oc2ccc(F)cc2)[C@@H]2[C@H]1CCN2C(=O)[C@@H](NC(=O)[C@H](C)NC)C1CCCCC1 [Example 26, 4-[2-Cyclohexyl-2-(2-methylamino-propionylamino)-acetyl]-3-(4-fluoro-phenoxy)-hexahydro-pyrrolo[3,2-b]pyrrole-1-carboxylic acid methylamide] | < 100 | < 100 | < 100 |
| CN[C@@H](C)C(=O)N[C@H](C(=O)N1CC[C@@H]2[C@H]1[C@@H](Oc1ccc(F)cc1)CN2S(C)(=O)=O)[C@@H](C)OC [Example 11, N-{1-[6-(4-Fluoro-phenoxy)-4-methanesulfonyl-hexahydro-pyrrolo[3,2-b]pyrrole-1-carbonyl]-2-methoxy-propyl}-2-methylamino-propionamide] | < 100 | < 100 | < 100 |
| CN[C@@H](C)C(=O)N[C@H](C(=O)N1CC[C@@H]2[C@H]1[C@@H](Oc1ccc(F)cc1)CN2C(=O)NC(C)C)C(C)(C)C [Example 29, 4-[3,3-Dimethyl-2-(2-methylamino-propionylamino)-butyryl]-3-(4-fluoro-phenoxy)-hexahydro-pyrrolo[3,2-b]pyrrole-1-carboxylic acid isopropylamide] | < 100 | < 100 | < 100 |
| CN[C@@H](C)C(=O)N[C@H](C(=O)N1CC[C@@H]2[C@H]1[C@@H](COc1ccc(F)c(F)c1)CN2C(=O)OC)C(C)(C)C [Example 70, 3-(3,4-Difluoro-phenoxymethyl)-4-[3.3-dimethyl-2-(2-methylaminopropionylamino)-butyryl]-hexahydro-pyrrolo[3,2-b]pyrrole-1-carboxylic acid methyl ester] | < 100 | < 100 | < 100 |
| CN[C@@H](C)C(=O)N[C@H](C(=O)N1CC[C@@H]2[C@H]1[C@@H](Oc1ccc(F)c(F)c1)CN2C1CCOCC1)C(C)(C)C [Example 15, N-{1-[6-(3,4-Difluoro-phenoxy)-4-(tetrahydro-pyran-4-yl)-hexahydro-pyrrolo[3,2-b]pyrrole-1-carbonyl]-2,2-dimethyl-propyl}-2-methylamino-propionamide] | 100 to 1000 | < 100 | < 100 |
| CN[C@@H](C)C(=O)N[C@H](C(=O)N1CC[C@@H]2[C@H]1[C@@H](Oc1ccc(F)c(F)c1)CN2S(C)(=O)=O)[C@@H](C)OC [Example 14, N-{1-[6-(3,4-Difluoro-phenoxy)-4-methanesulfonyl-hexahydro-pyrrolo[3,2-b]pyrrole-1-carbonyl]-2-methoxy-propyl}-2-methylamino-propionamide] | < 100 | < 100 | < 100 |
| CN[C@@H](C)C(=O)N[C@H](C(=O)N1CC[C@@H]2[C@H]1[C@@H](Oc1ccc(F)c(F)c1)CN2S(C)(=O)=O)C(C)C [Example 12, N-{1-[6-(3,4-Difluoro-phenoxy)-4-methanesulfonyl-hexahydro-pyrrolo[3,2-b]pyrrole-1-carbonyl]-2-methyl-propyl}-2-methylamino-propionamide] | < 100 | < 100 | < 100 |
| CN[C@@H](C)C(=O)N[C@H](C(=O)N1CC[C@@H]2[C@H]1[C@@H](OCc1ccc(F)cc1)CN2C(=O)OC(C)(C)C)C(C)(C)C [Example 34, 4-[3,3-Dimethyl-2-(2-methylamino-propionylamino)-butyryl]-3-(4-fluoro-benzyloxy)-hexahydro-pyrrolo[3,2-b]pyrrole-1-carboxylic acid tert-butyl ester] | < 100 | < 100 | < 100 |
| CN[C@@H](C)C(=O)N[C@H](C(=O)N1CC[C@@H]2[C@H]1[C@@H](OC(=O)NC(C)(C)C)CN2C(=O)NC(C)C)C(C)(C)C [Example 55, tert-Butyl-carbamic acid 4-[3,3-dimethyl-2-(2-methylamino-propionylamino)-butyryl]-1-isopropylcarbamoyl-octahydro-pyrrolo[3,2-b]pyrrol-3-yl ester] | 1000 to 10000 | < 100 | 100 to 1000 |
| CN[C@@H](C)C(=O)N[C@H](C(=O)N1CC[C@@H]2[C@H]1[C@@H](OC(=O)N(C)c1ccccc1)CN2C(=O)NC(C)C)C(C)(C)C [Example 50, Methyl-phenyl-carbamic acid 4-[3,3-dimethyl-2-(2-methylamino-propionylamino)-butyryl]-1-isopropylcarbamoyl-octahydro-pyrrolo[3,2-b]pyrrol-3-yl ester] | 100 to 1000 | < 100 | 100 to 1000 |
| CN[C@@H](C)C(=O)N[C@H](C(=O)N1CC[C@@H]2[C@H]1[C@@H](OCc1ccc(F)cc1)CN2C(=O)NCc1ccccc1)C(C)(C)C [Example 30, 4-[3,3-Dimethyl-2-(2-methylamino-propionylamino)-butyryl]-3-(4-fluoro-benzyloxy)-hexahydro-pyrrolo[3,2-b]pyrrole-1-carboxylic acid benzylamide] | < 100 | < 100 | < 100 |
| CN[C@@H](C)C(=O)N[C@H](C(=O)N1CC[C@@H]2[C@H]1[C@@H](OCc1ccc(F)cc1)CN2S(=O)(=O)CC(C)C)C(C)(C)C [Example 38, N-{1-[6-(4-Fluoro-benzyloxy)-4-(2-methyl-propane-1-sulfonyl)-hexahydro-pyrrolo[3,2-b]pyrrole-1-carbonyl]-2,2-dimethyl-propyl}-2-methylamino-propionamide] | < 100 | < 100 | < 100 |
